Data as given in patent US8476266B2, “Phenylacetic acid compound” (Ono Pharmaceutical Co., Ltd., priority 2007, dated 2013).

What was measured:
[1] = target: T1, DP receptor (Homo sapiens, UniProt Q13258); test: Measurement of DP receptor antagonistic activity using human platelet-rich plasma (PRP); inhibition of PGD2-stimulated cAMP production; type: cell-based; details: for IC50: human PRP, 3 μmol/L PGD2 stimulation; for binding activity against the DP receptor compared with the non-substituted compound (Comparative compound 1): in words
T1 construct: Blood was collected from the cubital vein of a healthy adult; endogenous in cells; host or cells: human platelets (platelet-rich plasma of a healthy adult donor)
T1 sequence (Q13258 1-359): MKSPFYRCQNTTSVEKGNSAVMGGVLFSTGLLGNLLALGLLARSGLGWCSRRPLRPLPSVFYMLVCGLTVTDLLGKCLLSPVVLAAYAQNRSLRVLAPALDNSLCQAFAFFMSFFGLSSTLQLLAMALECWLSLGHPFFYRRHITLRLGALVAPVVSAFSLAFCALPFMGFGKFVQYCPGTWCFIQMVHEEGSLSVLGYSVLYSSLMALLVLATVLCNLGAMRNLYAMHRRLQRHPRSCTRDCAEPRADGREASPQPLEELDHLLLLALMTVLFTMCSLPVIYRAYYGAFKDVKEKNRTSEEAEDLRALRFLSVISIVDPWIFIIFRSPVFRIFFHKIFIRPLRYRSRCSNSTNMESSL
Experimental: The collected blood was subjected to centrifugal separation at 100 G, at room temperature for 15 minutes to obtain PRP in the upper layer. EDTA was added to the obtained PRP so that the final concentration thereof to be about 10 mmol/L. The PRP was subjected to centrifugal separation at 1500 G, at room temperature for 15 minutes to obtain supernatant platelet poor plasma (PPP). After the obtained platelet pellets were suspended, the suspension was diluted with PPP so that the platelet density to be adjusted to 5.0×10^5/μL. To the obtained platelet suspension, 3-isobutyl-1-methylxanthine and prostanoid EP3 receptor antagonist were added so that the final concentrations thereof to be 8 mmol/L and 1 μmol/L, respectively.
297 μL of the prepared PRP was dispensed to each test tube, followed by subjecting to incubation at 37° C. for 5 minutes. After adding 1.5 μL of DMSO or a variety of concentrations of the compound of the present invention, 10 minutes of incubation was carried out at 37° C. 1.5 μL, of DMSO or PGD2 (final concentration: 3 μmol/L) was added thereto to initiate the reaction. After 15 minutes of incubation was carried out at 37° C., […] of ice-cooled 10% trichloroacetic acid (TCA) was added thereto to terminate the reaction. The TCA-treated sample was subjected to centrifugal separation at 15,000 G for 3 minutes at 4° C. The concentration of thus obtained supernatant cAMP was measured by enzyme immunoassay using cAMP EIA system (Amersham plc). 300 μL of the supernatant obtained above was mixed with 600 μL, of a solution of 0.5 mol/L tri-n-octylamine in chloroform. After extracting TCA in the organic layer, the cAMP content in the water layer sample was measured according to the method described in cAMP assay kit.

[2] = target: T2, prostanoid receptor subtype (human EP2) (Homo sapiens, UniProt P43116); test: Receptor binding experiment using prostanoid receptor subtype expressing cell (3H-PGE2, CHO cell membrane); details: 3H-PGE2 2.5 nM, read-out: Ki, EP2 receptor binding (3H-PGE2 binding inhibition)
T2 construct: expressed in transfected cells; host or cells: CHO cells
Experimental: According to the method of Sugimoto et. al. (J. Biol. Chem. 267, 6463-6466 (1992)), CHO cells in which prostanoid receptor subtype (human EP2) was expressed were prepared to obtain membrane preparation.
A reaction solution (200 μl) containing membrane fraction preparation (0.5 mg/ml) and ^3H-PGE2 was incubated at room temperature for one hour. The reaction was terminated by ice-cooled buffer (3 ml), bound ^3H-PGE2 was trapped on a glass filter (GF/B) by suction filtration at reduced pressure, and bound radioactivity was measured by a liquid scintillator.
The Kd value was calculated from Scatchard plots [Ann. N.Y. Acad. Sci. 51, 660 (1949)]. Nonspecific binding was determined as a bond in the presence of excessive amount (10 μM) of unlabeled PGE2. The measurement of ^3H-PGE2 binding inhibitory effect by the compound of the present invention was carried out by adding ^3H-PGE2 (2.5 nM) and the compound of the present invention at a variety of concentrations. Note that all reactions used the following buffer.
Buffer: potassium phosphate (10 mM, pH 6.0), EDTA (1 mM), MgCl2 (10 mM), NaCl (0.1 M).
Dissociation constant (Ki (μM)) of each compound was calculated from the following equation. Ki=IC50/(1+([C]/Kd) • IC50: Concentration of the compound of the present invention required for 50%-inhibition of [3H]PGE2 specific bond • C: Concentration of [3H]PGE2 • Kd: Dissociation constant of [3H]PGE2

[3] = target: T3, Human CYP3A4 (Homo sapiens, UniProt P08684); test: Measurement of drug-metabolizing enzyme inhibitory activity (human CYP3A4 inhibitory effect), CYP3A4 expression system microsome, 7-BQ substrate; type: in vitro ADME; details: 7-benzyloxyquinoline substrate, 37° C., 30 minutes
T3 construct: purchased BD Gentest
Experimental: A solution of the test compound having a concentration five hundred times more than the evaluation concentration in ethanol, or ethanol was 125-fold diluted by water. 50 μL of the test compound solution or the ethanol solution (control) was added with CYP3A4 substrate (7-benzyloxyquinoline (7-BQ), 40 μmol/L), magnesium chloride solution (5 mmol/L), and 100 μL, of 200 mM potassium phosphate buffer solution (pH 7.4) containing CYP3A4 expression system microsome (BD Gentest, 0.25 mg/mL), and preincubated at 37° C. for 10 minutes, then added with 50 μL, of reduced nicotinamide adenine dinucleotide phosphate (NADPH, final concentration 1 mmol/L) and incubated at 37° C. for 30 minutes. Immediately after the addition of NADPH, and after incubation, the fluorescence intensity was measured for 7-hydroxyquinoline which is a metabolite of the substrate (excitation wavelength 409 nm, emission wavelength 530 nm). The inhibition ratio against the control was calculated by the equation below. Inhibition rate(%)=[1-{(fluorescence intensity of the test compound after incubation−fluorescence intensity of the test compound immediately after addition of NADPH)/(fluorescence intensity of control after incubation−fluorescence intensity of control immediately after the addition of NADPH)}]×100.
IC50 was calculated from the equation below. IC50(μmol/L)=(50−(D×A−C×B)/(D−C))/((B−A)/(D−C)) • A: Highest inhibition rate (%) which is less than 50%. • B: Lowest inhibition rate (%) which is more than 50%. • C: Concentration (μmol/L) of the test compound when the inhibition rate is A. • D: Concentration (μmol/L) of the test compound when the inhibition rate is B.

T3 sequence (P08684 whole entry): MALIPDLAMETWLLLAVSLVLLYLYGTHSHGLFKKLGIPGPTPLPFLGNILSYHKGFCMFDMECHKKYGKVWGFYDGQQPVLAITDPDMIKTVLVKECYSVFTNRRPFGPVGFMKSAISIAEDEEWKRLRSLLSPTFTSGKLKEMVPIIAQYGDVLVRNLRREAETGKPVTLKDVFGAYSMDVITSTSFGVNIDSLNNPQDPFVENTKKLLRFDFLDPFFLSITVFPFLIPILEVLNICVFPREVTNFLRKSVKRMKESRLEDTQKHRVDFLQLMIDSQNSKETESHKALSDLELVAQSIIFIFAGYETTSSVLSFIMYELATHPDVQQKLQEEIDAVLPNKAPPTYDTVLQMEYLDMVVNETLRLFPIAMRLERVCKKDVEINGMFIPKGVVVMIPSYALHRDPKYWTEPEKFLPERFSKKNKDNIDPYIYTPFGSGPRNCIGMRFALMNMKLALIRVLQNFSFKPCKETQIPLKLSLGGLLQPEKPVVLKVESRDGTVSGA
T2 sequence (P43116 whole entry): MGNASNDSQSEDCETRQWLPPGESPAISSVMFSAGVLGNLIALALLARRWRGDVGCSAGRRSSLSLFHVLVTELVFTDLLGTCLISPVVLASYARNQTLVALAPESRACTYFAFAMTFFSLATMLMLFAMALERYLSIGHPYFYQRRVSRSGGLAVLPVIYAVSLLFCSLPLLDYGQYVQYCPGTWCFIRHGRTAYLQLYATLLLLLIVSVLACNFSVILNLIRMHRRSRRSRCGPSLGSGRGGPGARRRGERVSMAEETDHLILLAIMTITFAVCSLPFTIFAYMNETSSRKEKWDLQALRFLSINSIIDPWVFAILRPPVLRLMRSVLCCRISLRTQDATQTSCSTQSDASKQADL

Cc1cc(OC[C@@H]2CN(C)c3ccccc3O2)cc(C)c1C(=O)Nc1cccc(CC(=O)O)c1 [Comparative compound 1, (3-((2,6-dimethyl-4-(((2S)-4-methyl-3,4-dihydro-2H-1,4-benzoxazin-2-yl)methoxy)benzoyl)amino)phenyl)acetic acid]
IC50 [1]: 21 nM | Ki [2]: 93.6 nM | IC50 [3]: ≥ 30000 nM

Cc1ccc(CC(=O)O)cc1NC(=O)c1c(C)cc(OC[C@@H]2CN(C)c3ccccc3O2)cc1C [Comparative compound 2, (3-((2,6-dimethyl-4-(((2S)-4-methyl-3,4-dihydro-2H-1,4-benzoxazin-2-yl)methoxy)benzoyl)amino)-4-methylphenyl)acetic acid]
binding activity against the DP receptor compared with the non-substituted compound (Comparative compound 1) [1]: more increased binding activity | IC50 [3]: < 3000 nM

Cc1cc(OC[C@@H]2CN(C)c3ccccc3O2)cc(C)c1C(=O)Nc1cc(CC(=O)O)ccc1Cl [Comparative compound 3, (4-chloro-3-((2,6-dimethyl-4-(((2S)-4-methyl-3,4-dihydro-2H-1,4-benzoxazin-2-yl)methoxy)benzoyl)amino)phenyl)acetic acid]
IC50 [1]: 4 nM | Ki [2]: 16.8 nM | IC50 [3]: 19700 nM

Cc1cc(OC[C@@H]2CN(C)c3ccccc3O2)cc(C)c1C(=O)Nc1cc(C2(C(=O)O)CC2)ccc1Cl [Comparative compound 4, 1-(4-chloro-3-((2,6-dimethyl-4-(((2S)-4-methyl-3,4-dihydro-2H-1,4-benzoxazin-2-yl)methoxy)benzoyl)amino)phenyl)cyclopropanecarboxylic acid]
IC50 [1]: 6.5 nM | binding activity against the DP receptor compared with the non-substituted compound (Comparative compound 1) [1]: more increased binding activity | Ki [2]: 1.8 nM | IC50 [3]: ≥ 30000 nM

Cc1cc(OC[C@@H]2CN(C)c3ccccc3O2)cc(C)c1C(=O)Nc1cc(C2(C(=O)O)CC2)ccc1C(F)(F)F [Example 12, 1-(3-((2,6-dimethyl-4-(((2S)-4-methyl-3,4-dihydro-2H-1,4-benzoxazin-2-yl)methoxy)benzoyl)amino)-4-(trifluoromethyl)phenyl)cyclopropanecarboxylic acid]
IC50 [1]: 7.1 nM | Ki [2]: 142 nM | IC50 [3]: ≥ 30000 nM

CCc1cc(OC[C@@H]2CN(C)c3ccccc3O2)cc(C)c1C(=O)Nc1cc(C2(C(=O)O)CC2)ccc1C(F)(F)F [Example 21, 1-(3-((2-ethyl-6-methyl-4-(((2S)-4-methyl-3,4-dihydro-2H-1,4-benzoxazin-2-yl)methoxy)benzoyl)amino)-4-(trifluoromethyl)phenyl)cyclopropanecarboxylic acid]
IC50 [1]: 2.9 nM | IC50 [3]: ≥ 30000 nM

Cc1cc(OC[C@@H]2CN(C)c3ccccc3O2)cc(C)c1C(=O)Nc1cc(CC(=O)O)ccc1C(F)(F)F [Example 24, (3-((2,6-dimethyl-4-(((2S)-4-methyl-3,4-dihydro-2H-1,4-benzoxazin-2-yl)methoxy)benzoyl)amino)-4-(trifluoromethyl)phenyl)acetic acid]
IC50 [1]: 8.9 nM | IC50 [3]: 8400 nM
